The text below walks through data of patent US11384312B2, “Fragrance compositions and methods of use thereof” (TAKASAGO INTERNATIONAL CORPORATION, priority 2016, dated 2022).

One assay relates to salivary alpha-amylase. Put plainly: Timed mathematical and word stress test in panelists exposed to fragrance compound; salivary alpha-amylase before vs after stress. Type of assay: in vivo, human. Particulars: panelists' saliva, before vs immediately after stress test; single fragrance compound in DPG solvent; DPG control 51.9%. On the procedure:
(§1) Stress was induced in each panelist using a timed mathematical and word test, which was administered to panelists in a small group competition setting to induce stress in each of the panelists. At set time intervals during the test, each panelist was exposed to either a single fragrance compound or to a DPG control.
(§2) Saliva was collected for each panelist before and immediately after the stress test. Saliva samples were assayed for salivary alpha-amylase activity and salivary cortisol levels using a commercially available assay kit (e.g., Salimetrics).
Table 1-A summarizes the percent change (i.e., before stress versus after stress) in the salivary alpha-amylase levels of panelists exposed to fragrance compounds of the present disclosure during the stress test. In addition, the table illustrates the statistical significance of the change in alpha-amylase levels (i.e., p-value or probability value, P) of each of the fragrance compounds as compared to DPG, representing the change in the control (i.e., just DPG without a fragrance compound before stress and after stress).

In another assay the test system is salivary cortisol. As to the kind of experiment: Timed mathematical and word stress test in panelists exposed to fragrance compound; salivary cortisol before vs after stress. Type of assay: in vivo, human. To be noted: panelists' saliva, before vs immediately after stress test; single fragrance compound in DPG solvent; DPG control 10.8%. The method, then: as §1, §2
Table 1-B summarizes the percent change (i.e., before stress versus after stress) in the salivary cortisol levels of panelists exposed to fragrance compounds of the present disclosure during the stress test. In addition, the table illustrates the statistical significance of the change in salivary cortisol levels (i.e., p-value or probability value, P) of each of the fragrance compounds as compared to DPG, representing the change in the control (i.e., just DPG without a fragrance compound before stress and after stress).

`CC(=O)C1(C)CC2=C(CCCC2(C)C)CC1C` (stereo not shown) [1-(1,2,3,4,5,6,7,8-octahydro-2,3,8,8,-tetramethyl-2-naphthyl)ethan-1-one]: the “% Change in Alpha-amylase (i.e., before versus after stress)” value (“% Change in Alpha-amylase” below) in the assay with salivary alpha-amylase was −2.5%. In addition, in the assay on salivary cortisol, the “% Change in Cortisol (i.e., before versus after stress)” value (shortened to “% Change in Cortisol”) is reported as −11.9%.
For `COC(=O)OC1CCC=CCCC1` (stereo not shown) [1-cyclooct-4-enyl methyl carbonate] the same measures were 15.2% and 3.5%.
The corresponding values for `CC(C)(C)C1CCC(=O)C(C(C)(C)C)C1` (stereo not shown) [2,4-di(tert-butyl)-cyclohexan-1-one] are 10.9% and 8.3%.
The corresponding values for `CC1(O)CCC2C(=CCCC2(C)C)C1` (stereo not shown) [2,5,5-trimethyl-1,3,4,4a,6,7-hexahydronaphthalen-2-ol] are 5.1% and 30.0%.
Take `CC(=O)OC1CCCCC1C(C)(C)C` (stereo not shown) [2-tert-butylcyclohexyl acetate]: the “% Change in Alpha-amylase” value with salivary alpha-amylase was −4.3%. In the assay with salivary cortisol, the “% Change in Cortisol” value is given as −14.2%.
For `CC(C=O)Cc1ccc(C(C)C)cc1` (stereo not shown) [3-(4-isopropylphenyl)-2-methylpropanal] the same measures were 4.8% and 17.73%.
`CC1(C)CCC[C@]2(C)[C@H]3CCO[C@]3(C)CC[C@@H]12` [Ambroxide]: the “% Change in Alpha-amylase” value in the assay on salivary alpha-amylase is recorded as −12.2%. In addition, the “% Change in Cortisol” value in the assay on salivary cortisol worked out at 1.1%.
For `CC(=O)O[C@@H]1C[C@@H]2CC[C@@]1(C)C2(C)C` [Bornyl Acetate, L] the same measures were 27.1% and −13.0%.
The corresponding values for `CC12CCC(CC1=O)C2(C)C` (stereo not shown) [Camphor] are −11.6% and −2.2%.
For `CC(C)=CCCC(C)=CC=O` [Citral] the same measures were 7.5% and −2.8%.
Turning to `CC(C)=CCCC(C)CC=O` (stereo not shown) [Citronellal], the “% Change in Alpha-amylase” value in the assay on salivary alpha-amylase is on record as 4.9%. The “% Change in Cortisol” value in the assay with salivary cortisol is 16.8%.
For `CC(C)=CCCC(C)CCO` (stereo not shown) [Citronellol] the same measures were 1.2% and 3.4%.
For `C=CC(C)CCCC(C)(C)OC(C)=O` (stereo not shown) [Dihydromyrcenyl Acetate] the same measures were −3.9% and −13.3%.
The corresponding values for `C=CC(C)CCC=C(C)C` (stereo not shown) [Dihyrdomyrcene] are 23.6% and −8.1%.
As to `CC12CCC(CC1)C(C)(C)O2` [Eucalyptol], in the assay on salivary alpha-amylase, the “% Change in Alpha-amylase” value is given as −11.1%. Also, the “% Change in Cortisol” value in the assay with salivary cortisol was −12.87%.
The corresponding values for `C=CC(=C)CCCC(C)(C)OC(C)=O` [Myrcenyl Acetate] are 15.8% and −6.9%.
The corresponding values for “(1,7,7-trimethylbicyclo[2.2.1]hept-2-yl)-cyclohexanol” are 3.8% and 1.0%.
